The values that follow come from patent US11207379B2, “Peptides with anti-cancer activity” (IDP DISCOVERY PHARMA, S.L., priority 2016, dated 2021).

Numbered stars: 1 amine (or outer) side, 2 acyl side, 3 side chain; on linkers, the order of the positions; unused ones are H or OH. Peptide text beside a SMILES is read from it. Suc = O=C(CCC(=O)[*:2])[*:1] Bounds are passed on as bounds.

Assay type in all cases: cell-based
Assay [1] addresses HL-60, promyeloblast (acute myelocytic leukemia, AML). The assay can be described thus: Viability assay (MTT, Alamar Blue, hexosaminidase), 72 h. Conditions: HL-60 cells, read-out: EC50. As for the experimental part: HL-60, promyeloblast (acute myelocytic leukemia, AML), ECACC: 98070106
(§1) Cell lines A549, MCF-7 and RAMOS were cultured in incubator under CO2 (6%) at 37° C. in DMEM high glucose (Dulbecco's Modified Eagle Solution, Gibco-BRL 31966-21) medium with 10% fetal bovine serum inactivated (FBS) (Gibco-BRL 10106-169). Cell lines HL-60 and MM.1S were cultured in incubator at 37° C. in RPMI-1640 (Sigma R8758) medium with 10% of fetal bovine serum inactivated (FBS) and 2 mM glutamine (Sigma G7513). Cell lines BJ were cultured in incubator under CO2 (6%) at 37° C. in Eagle's Minimum Essential Medium (Sigma, M-2279) with 10% fetal bovine serum inactivated (FBS) (Gibco-BRL 10106-169).
(§2) During the amplification step and the assays adherent cells were rinsed with DPBS (Dulbecco's Phosphate Buffered Saline, Sigma D1283) three times and afterward treated for 5 minutes with trypsin ([…]) (Gibco-BRL, 15400054) in solution of DPBS at 37° C., and, once detached, transferred in the culturing medium. No-adherent cells were centrifuged and transferred in the culturing medium. Cells were counted in a Neubauer chamber after labelling with Tripan-Blue.
(§3) A549, MCF-7 and JB cells were seeded at a density of 5000 cells/well and HL-60, MM.1S and Ramos at 10000 cells/well in 100 μl of medium in 96 well plates. After 24 h, the compounds to be tested were added to calculate the dose/response curve at the starting concentration of 100 μM with serial dilutions (1:1). Controls are the untreated cells. Each experiment was performed in triplicate.
(§4) Cells were incubated during 72 h in incubator under CO2 atmosphere at 37° C. Cell viability was measured by means of MTT (3-(4,5-dimethylthiazol-2-yl)-2.5-diphenyltetrazolium bromide) assay, Alamar Blue® (Biosource DAL1100) and Hexosaminidase activity test, consecutively, following manufacturer instructions.
(§5) MTT: 1. Stock solution of MTT (475989 Calbiochem) was 5 mg/ml in PBS 1×. As negative control (experiment noise) 3 wells were treated with 20 μl/well of a solution of SDS 10% in H2O. The same control was used for Alamar Blue/Hexosaminidase. 10 μl/well of MTT solution were added and the plate was incubated for 3-4 hr. The medium was discarded and 100 μl of extracting buffer (PBS 1×, 15% SDS, 50% […] N,N-Dimethylformamide, pH 4.7) were added to each well. Plates were incubated for 16 h at room temperature under orbital shaking. Absorbance at 570 nm was finally measured.
(§6) Alamar Blue: 10 μl Alamar Blue solution was added to each well and the plates were incubated for […] in the incubator. Fluorescence ratio at 535/590 (excitation/emission) was measured in Cytofluor (Millipore) fluorimeter. Blank control was determined by lysis of untreated cells with con 2% of Triton X100, right before adding Alamar Blue solution.
(§7) Hexosaminidase activity test: after Alamar Blue lecture, medium was discarded and plates were rinsed once with PBS. 60 μl hexosaminidase substrate (p-nitrophenol-N-acetyl-beta-D-glucosamide 7.5 mM [Sigma N-9376], sodium citrate 0.1 M, pH 5.0, 0.25% Triton X-100) was added to each well and the plates were incubated at 37° C. for 2-5 h, according to the cell type (hexosaminidase activity changes according to the cell type). […] Blank control was the same as described before.
(§8) Data analysis was performed calculating the percentage of cell viability normalized vs. the values of negative control, which was considered equal to 100%. The dose/response curve was fitted through the sigmoidal equation dose-response (variable slope) and the EC50 values were calculated as follow: Y=Bottom+(Top−Bottom)/(1+10^{[(Log EC50−X)*HillSlope]},
(The colour change of resazurin is a common sign of viable cells or microbes.)

Assay [2] has as its target MM.1S, B Lymphoblast (multiple myeloma). The assay is described as above. Conditions: MM.1S cells, read-out: EC50. As for the experimental part:
MM.1S, B Lymphoblast (multiple myeloma), ATCC: CRL-2974
as §1, §2, §3, §4, §5, §6, §7, §8

For assay [3], the target named is A549, epithelial (lung cancer). Described as above. Conditions: A549 cells, read-out: EC50. As for the experimental part:
A549, epithelial (lung cancer), ATCC:CCL-185
as §1, §2, §3, §4, §5, §6, §7, §8

Assay [4] relates to HL-60 cells. In words: Annexin V assay by flow cytometry. Conditions: for Percentage of HL-60 gated cells (positive to Annexin V): compound at EC30, control = 100%. As for the experimental part:
(§9) Miltenyi Biotec Annexin V-FITC Kit was used. To detect apoptosis in early stage Phosphatidylserine in plasmatic membrane localization was measured, though the calcium dependent reaction with Annexine V. Annexin V molecules were labelled with different fluorophores (FITC) and analyzed by FACS. To detect apoptosis in late stage DNA-intercalating agents, such Propidium iodide (PI) were used.
(§10) Cells were seeded at a density range of 150000-30000 cells/well in 12 wells plates, and incubated at 37° C. in the incubator under CO2 atmosphere. After 24 h, treatments at 4 h, 8 h, 18 h, 48 h and 72 h were performed in cell lines A549, HL-60 and MM.1S, at IC30 and/or IC80, with compounds IDP-S09 and IL-09, in cell lines HL-60 and MM.1S with compound IDP-S04 and in cell line A549 with compounds IDP-S02 and IDP-S03. Staurosporine and compound 100258-F4 (Sigma) were used as positive control and reference compound, respectively.
Background: Flow cytometry measures light scatter and fluorescence of single cells or particles in a stream.

For assay [5], the system named is MM.1S cells. The assay can be described thus: Annexin V assay by flow cytometry. As for the experimental part: as §9, §10
For assay [6], the system named is A549 cells. The assay can be described thus: Annexin V assay by flow cytometry. How it is done: as §9
Cells were seeded at a density range of 150000-30000 cells/well in 12 wells plates, and incubated at 37° C. in the incubator under CO2 atmosphere. After 24 h, […] A549, HL-60 and MM.1S, at IC30 and/or IC80, with compounds IDP-S09 and IL-09, in cell lines HL-60 and MM.1S with compound IDP-S04 and in cell line A549 with compounds IDP-S02 and IDP-S03. Staurosporine and compound 100258-F4 (Sigma) were used as positive control and reference compound, respectively.

Assay [7] concerns JB healthy cells (BJ, fibroblast, normal skin). The assay can be described thus: Viability assay (MTT, Alamar Blue, hexosaminidase), 72 h. How it is done:
BJ, fibroblast (normal skin), ATCC® CRL-2522™
as §1
During the amplification step and the assays adherent cells were rinsed with DPBS (Dulbecco's Phosphate Buffered Saline, Sigma D1283) three times and afterward treated for 5 minutes with trypsin ([…]) (Gibco-BRL, 15400054) in solution of DPBS at 37° C., and, once detached, transferred in the culturing medium. […] Cells were counted in a Neubauer chamber after labelling with Tripan-Blue. […]
Cells were incubated during 72 h in incubator under CO2 atmosphere at 37° C. Cell viability was measured by means of MTT (3-(4,5-dimethylthiazol-2-yl)-2.5-diphenyltetrazolium bromide) assay, Alamar Blue® (Biosource DAL1100) and Hexosaminidase activity test, consecutively, following manufacturer instructions. […]

The target in assay [8] is RAMOS, B lymphocyte (Burkitt's Lymphoma). Described as above. Conditions: Ramos cells, read-out: EC50. As for the experimental part:
RAMOS, B lymphocyte (Burkitt's Lymphoma), ATCC: CRL-1596
as §1, §2, §3, §4, §5, §6, §7, §8

The target of assay [9] is MCF-7, epithelial (breast cancer). The assay is described as above. Conditions: MCF7 cells, read-out: EC50. How it is done:
MCF-7, epithelial (breast cancer), ECACC: 86012803
as §1, §2, §3, §4, §5, §6, §7, §8

Setting [10] is: 4 h, compound at EC30, control = 100%.
Where [11] appears, read: 4 h, compound at EC80, control = 100%.

For the molecule `CC[C@H](C)[C@H](NC(=O)[C@H](Cc1ccc(O)cc1)NC(=O)[C@H](C)NC(=O)[C@H](CC(C)C)NC(=O)[C@H](C)NC(=O)[C@H](CCCCN)NC(=O)[C@H](CCCCN)NC(=O)[C@H](Cc1ccccc1)NC(=O)[C@@H](NC(=O)[C@@H](NC(=O)[C@@H](NC(=O)[C@H](CCCCN)NC(=O)[C@@H]1CCCN1C(=O)[C@H](C)NC(=O)[C@H](CCCNC(=N)N)NC(=O)[C@H](CCCNC(=N)N)NC(=O)[C@H](CCCNC(=N)N)NC(=O)[C@H](CCCNC(=N)N)NC(=O)[C@H](CCCNC(=N)N)NC(=O)[C@H](CCCNC(=N)N)NC(=O)[C@H](CCCNC(=N)N)NC(=O)CCC(=O)O)[C@@H](C)CC)C(C)C)[C@@H](C)CC)C(N)=O` [IDP-L09] (Suc-RRRRRRRAPKIVIFKKALAYI-NH2), the 50% effective concentration (EC50) was 46 ± 6 µM in assay [1]; 25 ± 1 µM in assay [2]; 48 ± 5 µM in assay [3]; over 100 µM in assay [7]; 28 ± 1 µM in [8]; about 28 µM in assay [9]. Moreover, the “Percentage of HL-60 gated cells (positive to Annexin V)” value in [4] (48 h) was determined as 590%; in assay [4] (72 h) it was 230%. Further, the “apoptosis induction (Annexin V by FACS), in words” value in [4] (HL-60 cells) was “apoptosis induction is significant after 48 h and 72 h at low concentrations (IC30)”; in assay [5] (MM.1S cells), “induces apoptosis at 8 h, 48 h and 72 h at low concentration (IC30) and at 8 h at high concentration (IC80)”; in [6] (A549 cells) it was “fast induction (4 h) is observed”. The “Percentage of MM.1S gated cells (positive to Annexin V)” value in assay [5] (setting [10]) was 50%; in assay [5] (setting [11]), 50%; in [5] (8 h, compound at EC30, control = 100%), 220%; in assay [5] (8 h, compound at EC80, control = 100%), 310%; in assay [5] (48 h, compound at EC30, control = 100%) it was 190%; in [5] (72 h, compound at EC30, control = 100%), 500%. In addition, the “Percentage of A549 gated cells (positive to Annexin V)” value is 900% in assay [6] (setting [10]); 2400% in assay [6] (setting [11]); 400% in assay [6] (16 h, compound at EC30, control = 100%); 950% in [6] (16 h, compound at EC80, control = 100%).

As a reminder, the EC50 is the concentration giving half of the maximal effect.
